Data as given in ChEMBL document CHEMBL1201862, “PubChem BioAssay data set” (2004).
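A five-concentration, 48-hour dose response in 96-well plates underlies each endpoint, interpolated linearly between surrounding concentrations. GI50 = concentration required for 50% inhibition of growth.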 The source made the active and inactive calls. Cut-off read from the data, not from the text of the source: active = GI50 up to about 1.1 µM and inactive = higher.

Experiments:
Experiment in all cases: DTP human tumour cell line panel, 48 h
A498 = test system: A498
A549 = test system: A549
SK-MEL-5 = test system: SK-MEL-5
TK-10 = test system: TK-10
HCT-116 = test system: HCT-116
NCI-H226 = test system: NCI-H226
IGROV-1 = test system: IGROV-1
KM-20L2 = test system: KM-20L2
SF-268 = test system: SF-268
SR = test system: SR
XF498 = test system: XF498
SNB-19 = test system: SNB-19
SK-MEL-28 = test system: SK-MEL-28
HCT-15 = test system: HCT-15
HT-29 = test system: HT-29
U-251 = test system: U-251
SK-OV-3 = test system: SK-OV-3
MDA-MB-231 = test system: MDA-MB-231
T47D = test system: T47D
BT-549 = test system: BT-549

SMILES	GI50 (A498)	GI50 (A549)	GI50 (SK-MEL-5)	GI50 (TK-10)	GI50 (HCT-116)	GI50 (NCI-H226)	GI50 (IGROV-1)	GI50 (KM-20L2)	GI50 (SF-268)	GI50 (SR)	GI50 (XF498)	GI50 (SNB-19)	GI50 (SK-MEL-28)	GI50 (HCT-15) [µM]	GI50 (HT-29)	GI50 (U-251)	GI50 (SK-OV-3)	GI50 (MDA-MB-231)	GI50 (T47D)	GI50 (BT-549)
COc1ccc(/C(=N\NC(=S)NN)C(c2ccc(OC)cc2)C2C(=O)Oc3ccccc32)cc1 (configuration not stated)	> 10 µM (inactive)	> 10 µM (inactive)	> 10 µM (inactive)	> 10 µM (inactive)	> 10 µM (inactive)	> 10 µM (inactive)	> 10 µM (inactive)	> 10 µM (inactive)	> 10 µM (inactive)	80.7 µM (inactive)	> 10 µM (inactive)	> 10 µM (inactive)	56.2 µM (inactive)	> 10	> 10 µM (inactive)	> 10 µM (inactive)	> 10 µM (inactive)	–	–	–
CC(=O)OCCOCNC(=S)N/N=C(\C)c1cnccn1	58.6 µM (inactive)	24.5 µM (inactive)	15.4 µM (inactive)	28.4 µM (inactive)	34.3 µM (inactive)	28.1 µM (inactive)	26.9 µM (inactive)	13.2 µM (inactive)	17.5 µM (inactive)	18.4 µM (inactive)	> 100 µM (inactive)	73.1 µM (inactive)	42.5 µM (inactive)	22.1	41 µM (inactive)	29.6 µM (inactive)	46.5 µM (inactive)	–	–	–
Cc1nsc2cc(Cl)n(C)c(=O)c12	> 100 µM (inactive)	> 100 µM (inactive)	> 100 µM (inactive)	> 100 µM (inactive)	> 100 µM (inactive)	> 100 µM (inactive)	> 100 µM (inactive)	> 100 µM (inactive)	> 100 µM (inactive)	> 100 µM (inactive)	> 100 µM (inactive)	> 100 µM (inactive)	> 100 µM (inactive)	> 100	> 100 µM (inactive)	> 100 µM (inactive)	> 100 µM (inactive)	–	–	–
CC12CCC(=O)N1c1cc([N+](=O)[O-])ccc1N2 (configuration not stated)	> 100 µM (inactive)	> 100 µM (inactive)	> 100 µM (inactive)	–	> 100 µM (inactive)	> 100 µM (inactive)	> 100 µM (inactive)	> 100 µM (inactive)	> 100 µM (inactive)	76 µM (inactive)	> 100 µM (inactive)	> 100 µM (inactive)	> 100 µM (inactive)	> 100	> 100 µM (inactive)	> 100 µM (inactive)	> 100 µM (inactive)	–	–	–
CC(C)C(/N=C1\CC2CCC1(C(=O)Nc1ccccc1O)C2(C)C)c1ccccc1 (configuration not stated)	> 10 µM (inactive)	> 10 µM (inactive)	6.44 µM (inactive)	> 10 µM (inactive)	6.61 µM (inactive)	> 10 µM (inactive)	> 10 µM (inactive)	> 10 µM (inactive)	> 10 µM (inactive)	> 10 µM (inactive)	7.29 µM (inactive)	> 10 µM (inactive)	> 10 µM (inactive)	> 10	9.75 µM (inactive)	> 10 µM (inactive)	> 10 µM (inactive)	–	–	–
COc1cc(/C=C/c2ccc(/C=C/c3cc(OC)c(OC)c(OC)c3)cc2)cc(OC)c1OC	10.5 µM (inactive)	40.9 µM (inactive)	34.4 µM (inactive)	17.6 µM (inactive)	28.7 µM (inactive)	20.3 µM (inactive)	26.5 µM (inactive)	20.8 µM (inactive)	11.7 µM (inactive)	> 100 µM (inactive)	17 µM (inactive)	13.6 µM (inactive)	26.1 µM (inactive)	> 100	8.26 µM (inactive)	13.3 µM (inactive)	6 µM (inactive)	19.9 µM (inactive)	3.39 µM (inactive)	–
CCOc1ccc(NC(=O)CC2C(=O)Nc3ccccc3S2(=O)=O)cc1 (configuration not stated)	> 100 µM (inactive)	> 100 µM (inactive)	–	> 100 µM (inactive)	> 100 µM (inactive)	34.3 µM (inactive)	> 100 µM (inactive)	> 100 µM (inactive)	42.7 µM (inactive)	> 100 µM (inactive)	29.8 µM (inactive)	34.5 µM (inactive)	> 100 µM (inactive)	> 100	> 100 µM (inactive)	33.2 µM (inactive)	–	–	–	–
Cc1c(C(=O)CSc2nc3ccccc3c(=O)n2-c2ccccc2)c(=O)n(-c2ccccc2)n1C	42.4 µM (inactive)	64.9 µM (inactive)	31.6 µM (inactive)	41.9 µM (inactive)	68.2 µM (inactive)	23.3 µM (inactive)	> 100 µM (inactive)	> 100 µM (inactive)	> 100 µM (inactive)	82.2 µM (inactive)	43.2 µM (inactive)	44.4 µM (inactive)	99.3 µM (inactive)	> 100	> 100 µM (inactive)	22.4 µM (inactive)	19.3 µM (inactive)	–	–	–
Cc1cc(C)nc(/C(=N\NC(N)=O)C(=O)Nc2nc3ccc(C)cc3s2)c1	> 100 µM (inactive)	> 100 µM (inactive)	> 100 µM (inactive)	> 100 µM (inactive)	> 56.5 µM (inactive)	> 100 µM (inactive)	> 100 µM (inactive)	> 92.3 µM (inactive)	> 100 µM (inactive)	19.5 µM (inactive)	> 100 µM (inactive)	> 100 µM (inactive)	> 100 µM (inactive)	> 70	> 77.3 µM (inactive)	> 100 µM (inactive)	> 100 µM (inactive)	–	–	–
Cn1cnc([N+](=O)[O-])c1Sc1nc(N)nc2c1ncn2C1OC(CO)C(O)C1O (configuration not stated)	–	11 µM (inactive)	6.22 µM (inactive)	6.76 µM (inactive)	3.85 µM (inactive)	15.8 µM (inactive)	12.7 µM (inactive)	3.06 µM (inactive)	4.44 µM (inactive)	1.53 µM (inactive)	6.87 µM (inactive)	44.6 µM (inactive)	28 µM (inactive)	6.84	6.27 µM (inactive)	21.7 µM (inactive)	3.48 µM (inactive)	0.783 µM (active)	5.38 µM (inactive)	8.41 µM (inactive)
CC(=O)OCC1OC(n2ccc(=O)[nH]c2=O)C(OC(C)=O)C(OC(C)=O)C1OC(C)=O (configuration not stated)	> 100 µM (inactive)	> 100 µM (inactive)	> 100 µM (inactive)	> 100 µM (inactive)	> 100 µM (inactive)	9.16 µM (inactive)	> 100 µM (inactive)	> 100 µM (inactive)	> 100 µM (inactive)	> 100 µM (inactive)	> 100 µM (inactive)	> 100 µM (inactive)	> 100 µM (inactive)	> 100	> 100 µM (inactive)	> 100 µM (inactive)	> 100 µM (inactive)	–	–	–
CN(C)C(=S)/N=c1\ssc(=S)n1Cc1cccnc1	10.1 µM (inactive)	4.93 µM (inactive)	1.67 µM (inactive)	14.2 µM (inactive)	3.2 µM (inactive)	> 55.6 µM (inactive)	7.18 µM (inactive)	2.06 µM (inactive)	15.2 µM (inactive)	0.638 µM (active)	3.15 µM (inactive)	5.15 µM (inactive)	9.4 µM (inactive)	1.23	1.66 µM (inactive)	3.38 µM (inactive)	4.36 µM (inactive)	6.07 µM (inactive)	> 100 µM (inactive)	–
